Assay [1] relates to PBMC. Kind of assay: Effects of compound on INF-gamma production in anti-CD3/CD28-stimulated human PBMCs assessed as increase in INF-gamma level after 2 days by ELISA. The assay is classed as functional, tissue-based. As to conditions: dose 1-10 µM, time 2.0 day.
For assay [2], the system named is PBMC. Put plainly: Effect of compound on human PBMCs assessed as reduction in AREG expression in CD4-positive T cells after 1 day by flow cytometric analysis. The assay is classed as functional, cell-based. The settings on record: dose 1.25-5 µM.
For assay [3], the system named is PBMC. Put plainly: Effect of compound on human PBMCs assessed as reduction in PD-L1 expression in CD4-positive T cells after 1 day by flow cytometric analysis. The assay is classed as functional, cell-based. As to conditions: dose 1.25-5 µM.
Assay [4] deals with PBMC. Kind of assay: Effect of compound on human PBMCs assessed as reduction in CTLA4 expression in non-Treg cells after 1 day by flow cytometric analysis. The assay is classed as functional, cell-based. As to conditions: dose 0.19-6 µM.
The nature of assay [5]: Effects of compound on anti-CD3/CD28-stimulated human PBMCs assessed as CD4-positive cells population at 10 uM after 4 hrs by flow cytometric analysis. The assay is classed as functional, PBMC.
The nature of assay [6]: Effects of compound on anti-CD3/CD28-stimulated human PBMCs assessed as CD4-positive cells population at 10 uM after 2 days by flow cytometric analysis. The assay is classed as functional, PBMC. As to conditions: time 2 day.
Assay [7] deals with T1, Probable G-protein coupled receptor 174 (Homo sapiens, UniProt Q9BXC1). Put plainly: Inverse agonist activity at GPR174 in anti-CD3/CD28-stimulated human PBMCs assessed as reduction in FoxP3-positive Helios-positive nTreg cells at 100 uM after 7 days by flow cytometric analysis. As to conditions: PBMC, filed as inverse agonist, time 7.0 day. The assay is classed as functional, tissue-based.

Assay [8] addresses T1, Probable G-protein coupled receptor 174. Kind of assay: Inverse agonist activity at GPR174 in anti-CD3/CD28-stimulated human PBMCs assessed as reduction in FoxP3-positive Helios-positive nTreg cells at 30 uM after 7 days by flow cytometric analysis. The assay is classed as functional, tissue-based. As to conditions: PBMC, filed as inverse agonist, time 7.0 day.
Assay [9] can be described thus: Induction of TNF production in anti-CD3/CD28-stimulated human PBMCs assessed as fold increase in TNF level at 1 to 2 uM after 24 hrs in presence of A2aR inhibitor ZM-241385 by ELISA. The assay is classed as functional, PBMC. As to conditions: dose 1-2 µM.
The next assay deals with CD4+ve Th. Kind of assay: Reduction in AREG expression in human CD4-positive T-cells at 10 uM in presence of A2aR inhibitor ZM-241385. The assay is classed as functional.
The subject of a further assay is Splenocyte. Put plainly: Effects of compound on IL-2 production in anti-CD3/CD28-stimulated wild-type mouse spleenocytes assessed as fold increase in IL-2 level at 0.3 to 1 uM after 2 days. The assay is classed as functional. The settings on record: dose 0.3-1 µM; time 2 day.

Activity calls are given as the source filed them. The calls are words filed in the database; no cut-off is given here.

T1 sequence (Q9BXC1 whole entry): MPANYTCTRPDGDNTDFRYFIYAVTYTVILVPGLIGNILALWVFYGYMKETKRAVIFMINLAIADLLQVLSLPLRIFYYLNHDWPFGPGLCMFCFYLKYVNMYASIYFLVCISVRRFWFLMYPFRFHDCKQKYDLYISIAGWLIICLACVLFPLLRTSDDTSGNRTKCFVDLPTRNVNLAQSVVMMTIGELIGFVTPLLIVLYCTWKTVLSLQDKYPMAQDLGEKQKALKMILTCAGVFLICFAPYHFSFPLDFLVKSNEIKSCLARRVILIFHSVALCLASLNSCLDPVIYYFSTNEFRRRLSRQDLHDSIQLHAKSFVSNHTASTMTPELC

For `CC1CCN(c2cc(N3CCN(S(=O)(=O)c4ccccc4)CC3)c([N+](=O)[O-])cc2F)CC1`, the Activity result in the assay on PBMC [1] was “Dose-Dependent Effect”; in the assay with PBMC [2], “Dose-Dependent Effect”; in the assay with PBMC [3], “Dose-Dependent Effect”; in the assay with PBMC [4], “Dose-Dependent Effect”; in assay [5] it was 46.2%; in assay [6], 31.8%. Further, the outcome (in assay [7]; in assay [8]; with CD4+ve Th) was Active. Also, the “fold change (FC)” value in assay [9] came to 8; in the assay with Splenocyte, 10.

(Values after ChEMBL document CHEMBL4806962, “Methods and Compositions for Treating Cancer” (2020).)
